Experimental data reported in article doi:10.1101/2025.02.25.640225v1 (biorxiv, 2025).

Assays:
DapE = DapE (Mycobacterium tuberculosis, UniProt P9WHS9)
Rv1723 = Rv1723 (Mycobacterium tuberculosis, UniProt P71981)
Rv0309 = Rv0309 (Mycobacterium tuberculosis, UniProt O07236)
Sequence of Rv0309 (O07236 19-218 limits assumed): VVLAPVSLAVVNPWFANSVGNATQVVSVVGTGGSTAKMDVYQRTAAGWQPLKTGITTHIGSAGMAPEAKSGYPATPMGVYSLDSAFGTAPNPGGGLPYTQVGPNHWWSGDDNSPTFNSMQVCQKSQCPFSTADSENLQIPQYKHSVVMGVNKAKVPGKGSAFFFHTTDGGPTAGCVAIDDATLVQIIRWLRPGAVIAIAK

Sequence of DapE (P9WHS9 whole entry, looked up): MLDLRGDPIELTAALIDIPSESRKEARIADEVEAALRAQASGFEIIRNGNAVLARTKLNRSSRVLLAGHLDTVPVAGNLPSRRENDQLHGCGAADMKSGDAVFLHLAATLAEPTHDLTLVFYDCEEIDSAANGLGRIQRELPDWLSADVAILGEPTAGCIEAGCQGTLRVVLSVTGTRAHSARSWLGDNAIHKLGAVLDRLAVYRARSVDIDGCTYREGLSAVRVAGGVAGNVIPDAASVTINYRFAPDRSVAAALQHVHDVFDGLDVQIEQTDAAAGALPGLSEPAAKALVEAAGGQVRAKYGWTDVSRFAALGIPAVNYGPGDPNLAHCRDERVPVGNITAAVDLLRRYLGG
Sequence of Rv1723 (P71981 1-415): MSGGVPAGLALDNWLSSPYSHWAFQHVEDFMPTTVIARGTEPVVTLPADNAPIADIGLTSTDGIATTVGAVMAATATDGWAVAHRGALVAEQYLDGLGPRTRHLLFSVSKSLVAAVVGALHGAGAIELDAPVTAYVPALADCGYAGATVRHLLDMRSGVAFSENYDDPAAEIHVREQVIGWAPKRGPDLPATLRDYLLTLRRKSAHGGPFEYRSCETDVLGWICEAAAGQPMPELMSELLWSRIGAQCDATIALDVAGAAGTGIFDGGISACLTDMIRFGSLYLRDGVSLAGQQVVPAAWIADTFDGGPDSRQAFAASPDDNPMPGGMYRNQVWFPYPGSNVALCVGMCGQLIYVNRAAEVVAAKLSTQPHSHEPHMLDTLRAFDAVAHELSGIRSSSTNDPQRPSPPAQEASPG

SMILES: C[C@@H](O)[C@H]1C(=O)N2C(C(=O)O)=C(S[C@H]3C[C@@H](C(=O)N(C)C)N(C(=O)CCCCC[N+]4=C(/C=C/C=C/C=C5/N(C)c6ccc(S(=O)(=O)O)cc6C5(C)C)C(C)(C)c5cc(S(=O)(=O)[O-])ccc54)C3)[C@H](C)[C@H]12 [Mero-sCy5]
- fluorescent gel labelling (SDS-PAGE) (DapE): Mero-sCy5 labeled all enzymes

SMILES: CO[C@@]1(NC(=O)Cc2cccs2)C(=O)N2C(C(=O)O)=C(COC(N)=O)CS[C@@H]21 [cefoxitin]
- native MS (acyl-enzyme) (Rv1723): binding to cefoxitin was only partial

SMILES: C[C@@H](O)[C@H]1C(=O)N2C(C(=O)O)=C(S[C@@H]3CN[C@H](C(=O)N(C)C)C3)[C@H](C)[C@H]12 [meropenem]
- native MS (acyl-enzyme); competition of Mero-sCy5 labelling; inhibition of nitro (Rv0309): Rv0309 partially bound meropenem
